# Data: patent publication US5681964A, “Permeable, non-irritating prodrugs of nonsteroidal and steroidal agents” (University of Kentucky Research Foundation, priority 1994, dated 1997)
# Read-outs that look alike come from different tables or passages of the source.
# Assays:
# t1/2 in serum (Table 1) = format: in vitro ADME
# [1] = t1/2 in PB (7.4) (Table 1); format: physicochemical; details: for half-life: pH 7.4; for t1/2 in PB (7.4): result in words
# Solubility (Table 1) = format: physicochemical
# rabbit eye = experiment: irritancy in the rabbit eye, daily drops for seven days; format: in vivo; details: for degree of irritation to the cornea as compared to flurbiprofen in the acid form: 25 microliters (monoester, flurbiprofen) or 30 microliters (diester) into each eye daily, seven days, slit lamp, electron microscopy; for conversion into the flurbiprofen acid form during transport into the eye: aqueous humor and vitreous humor after seven days
# Procedure: Another experiment was performed with tetraethylene glycol flurbiprofenate and tetraethylene glycol bis-flurbiprofenate to determine the irritancy of these prodrugs in the rabbit eye.
# 25 microliters of tetraethylene flurbiprofenate were dropped into each eye of two rabbits each day for seven days. Also, 30 microliters of tetraethylene glycol bis-flurbiprofenate was dropped into each eye of two rabbits each day for 7 days. A control using 25 microliters of flurbiprofen was dropped into each eye of two rabbits for seven days. Each morning the rabbit's eyes were examined by slit lamp for evidence of cornea damage and irritation. After seven days the animals were sacrificed and samples of the aqueous humor and vitreous humor were obtained for analysis of flurbiprofen and a flurbiprofen ester. The eyes were also examined by electron microscopy. […] The test was repeated using 10 microliters of each of the substances each day for seven days with similar results.
# [2] = animal and human experiments; cited from earlier work
# skin = details: cited from earlier work
# Salmonella = details: Ames type assays and chronic exposure studies; cited from earlier work
# cornea = details: in vitro; cited from earlier work
# [3] = applied for treatment of inflammation; cited from earlier work
# [4] = man; cited from earlier work
# cornea epithelium = experiment: differential scanning calorimetry of cornea epithelium of treated enucleated albino rabbit eyes
# Procedure: The reduced cornea damage by polyethylene glycol flurbiprofenate and bis-flurbiprofenate prodrugs in albino rabbit eyes was assessed by differential scanning calorimetry. Tests were conducted to investigate the effects of flurbiprofen and the polyethylene glycol flurbiprofen ester and the diester prodrugs on the cornea epithelium. […] The effects of these drugs on the molecular structure of the cornea epithelium were assessed by differential scanning calorimetry. Fresh enucleated albino rabbit eyes were treated in solutions and also in suspensions of flurbiprofen and also in solutions and suspensions of the polyethylene glycol esters and diesters of flurbiprofen in isotonic glutathione buffered ringer solution for 10 minutes. The cornea epithelium was then scraped from the corneas and immediately analyzed by differential scanning calorimetry over the range of 40°-110° C.
# Whenever a normal rabbit's cornea epithelium was analyzed a large endothermic transition at 64°±2° C. was observed. It has been established by previous work that this particular peak which was observed was due to a lipid.backslash.protein phase transition.
# [5] = PB (7.4), read-out: t1/2 in PB (7.4) (converted)
half-life (t1/2 in serum (Table 1); read-out: t1/2 in serum),solubility (Solubility (Table 1); read-out: Solubility),t1/2 in PB (7.4) ([1]; PB (7.4)),Compound,other results
0.75 h,135 ± 4 µg/mL,,CC(C(=O)OCCOCCOCCO)c1ccc(-c2ccccc2)c(F)c1 (stereo not drawn) [Compound G-60],"half-life [1, 5]: 175 h"
0.0833 h,1120 ± 31 µg/mL,,"COc1ccc2cc(C(C)C(=O)OCCOCCOCCOCCO)ccc2c1 (stereo not drawn) [Compound G-167, monoester of naproxen and tetraethylene glycol]","half-life [1, 5]: 300 h"
0.217 h,943 ± 25 µg/mL,,COc1ccc2cc(C(C)C(=O)OCCOCCOCCO)ccc2c1 (stereo not drawn) [Compound G-192.1],"half-life [1, 5]: 230 h"
0.833 h,< 0.1 µg/mL,low solubility,COc1ccc2cc(C(C)C(=O)OCCOCCOCCOC(=O)C(C)c3ccc4cc(OC)ccc4c3)ccc2c1 (stereo not drawn) [Compound G-192.2],
0.967 h,553 ± 27 µg/mL,,COc1ccc2cc(C(C)C(=O)OCCOCCO)ccc2c1 (stereo not drawn) [Compound G-195.1],"half-life [1, 5]: 80 h"
1.25 h,< 0.1 µg/mL,low solubility,"COc1ccc2cc(C(C)C(=O)OCCOCCOC(=O)C(C)c3ccc4cc(OC)ccc4c3)ccc2c1 (stereo not drawn) [Compound G-195.2, diester of naproxen and diethylene glycol]",
,,,"CC1(C)O[C@@H]2C[C@H]3[C@@H]4CCC5=CC(=O)C=C[C@]5(C)[C@@]4(F)[C@@H](O)C[C@]3(C)[C@]2(C(=O)COC(=O)OCCOCCOCCOCCO)O1 [Compound G-196.1, carbonate linked ester of triamcinolone acetonide and tetraethylene glycol]",half-life (t1/2 in serum (Table 1)): 3.8 h; half-life ([1]; pb): 136 h; solubility (Solubility (Table 1)): 391 ± 49 µg/mL
,,,"CC1(C)O[C@@H]2C[C@H]3[C@@H]4CCC5=CC(=O)C=C[C@]5(C)[C@@]4(F)[C@@H](O)C[C@]3(C)[C@]2(C(=O)COC(=O)OCCOCCO)O1 [Compound G-197.1, carbonate linked ester of triamcinolone acetonide and diethylene glycol]",half-life (t1/2 in serum (Table 1)): 0.167 h; half-life ([1]; pb): 101 h; solubility (Solubility (Table 1)): 74 ± 3 µg/mL
0.533 h,228 ± 5 µg/mL,,"CC(C(=O)OCCOCCOCCOCCO)c1ccc(-c2ccccc2)c(F)c1 (stereo not drawn) [Compound G-202.1, tetraethylene glycol 2-(2-fluoro-4-biphenylyl)propionate]","half-life [1, 5]: 144 h; degree of irritation to the cornea as compared to flurbiprofen in the acid form (rabbit eye): significantly reduced; conversion into the flurbiprofen acid form during transport into the eye (rabbit eye): converted into the flurbiprofen acid form during transport into the eye"
3.67 h,< 0.1 µg/mL,low solubility,"CC(C(=O)OCCOCCOCCOCCOC(=O)C(C)c1ccc(-c2ccccc2)c(F)c1)c1ccc(-c2ccccc2)c(F)c1 (stereo not drawn) [Compound G-202.2, tetraethylene glycol bis-2-(2-fluoro-4-biphenylyl)propionate]",degree of irritation to the cornea as compared to flurbiprofen in the acid form (rabbit eye): significantly reduced; conversion into the flurbiprofen acid form during transport into the eye (rabbit eye): converted into the flurbiprofen acid form during transport into the eye
0.433 h,< 0.1 µg/mL,very slow,"COc1ccc2cc(C(C)C(=O)OCCOCCOCCOCCOC(=O)C(C)c3ccc4cc(OC)ccc4c3)ccc2c1 (stereo not drawn) [Compound G-219.2, diester of naproxen and tetraethylene glycol]",
0.0617 h,6430 ± 617 µg/mL,several days,COc1ccc2cc(C(C)C(=O)OCCOCCOCCOCCOCCOCCO)ccc2c1 (stereo not drawn) [Compound G-220.1],
0.833 h,< 0.1 µg/mL,very slow,"COc1ccc2cc(C(C)C(=O)OCCOCCOCCOCCOCCOCCOC(=O)C(C)c3ccc4cc(OC)ccc4c3)ccc2c1 (stereo not drawn) [Compound G-220.2, diester of naproxen and hexaethylene glycol]",
,,,CN1CCCC1=O [N-methyl-2-pyrrolidone],irritation or sensitization potential [2]: very little irritation or sensitization potential; penetration enhancement (skin): effective penetration enhancer; toxicity (Salmonella): have not revealed any significant toxicity
2.78 h,< 0.1 µg/mL,very slow,"CC(C(=O)OCCOCCOCCOCCOCCOCCOC(=O)C(C)c1ccc(-c2ccccc2)c(F)c1)c1ccc(-c2ccccc2)c(F)c1 (stereo not drawn) [TC-242.1, hexaethylene glycol bis-flurbiprofenate]",
0.367 h,445 ± 34 µg/mL,several days,"CC(C(=O)OCCOCCOCCOCCOCCOCCO)c1ccc(-c2ccccc2)c(F)c1 (stereo not drawn) [TC-242.2, hexaethylene glycol flurbiprofenate]",
,,,"CC(C(=O)O)c1ccc(-c2ccccc2)c(F)c1 (stereo not drawn) [flurbiprofen, 2(2-fluoro-4-biphenylyl)propionic acid]",cornea barrier function (cornea): impairs cornea barrier function in vitro; local irritation [3]: produces local irritation; irritation [4]: irritating in man; normal protein/lipid structure of cornea epithelium (cornea epithelium): substantially total breakdown of the normal protein/lipid structure
,,,benzalkonium chloride,intensity of the phase transition peak of cornea epithelium by DSC (cornea epithelium; compounds known to damage the cornea): greatly reduce the intensity of this observed peak
